Test results: publication PMC3915196, “Asymmetric Synthesis of Spirocyclic 2-Benzopyrans for Positron Emission Tomography of σ1 Receptors in the Brain” (Pharmaceuticals, 2014)
Read-outs that look alike come from different tables or passages of the source. Marks after values point to notes of the source that are not given here.

What was measured:
σ2 receptor = target: T1, σ2 receptor (Rattus norvegicus, UniProt Q5U3Y7); experiment: σ2 receptor binding assay with [3H]DTG, σ1 sites masked with (+)-pentazocine; details: for inhibition at 1 µM: read-out: Inhibition of radioligand binding (σ2)
T1 construct: two rat livers were cut into small pieces and homogenized with the Potter; tissue Harlan-Winkelmann, Borchen, Germany; host or cells: rat liver membrane homogenate
T1 sequence (Q5U3Y7 1-176): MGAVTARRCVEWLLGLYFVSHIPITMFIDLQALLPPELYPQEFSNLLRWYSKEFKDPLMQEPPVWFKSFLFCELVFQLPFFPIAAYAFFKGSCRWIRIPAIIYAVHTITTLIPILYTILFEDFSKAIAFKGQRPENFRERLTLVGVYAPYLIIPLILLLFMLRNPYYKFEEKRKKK

σ1 receptor [1] = target: T2, σ1 receptor (Cavia porcellus, UniProt Q60492); experiment: σ1 receptor binding assay with [3H]-(+)-pentazocine; design: species or system guinea pig
T2 construct: five guinea pig brains were homogenized with the Potter; tissue Harlan-Winkelmann, Borchen, Germany; host or cells: guinea pig brain (cortex) membrane homogenate
T2 sequence (Q60492 whole entry): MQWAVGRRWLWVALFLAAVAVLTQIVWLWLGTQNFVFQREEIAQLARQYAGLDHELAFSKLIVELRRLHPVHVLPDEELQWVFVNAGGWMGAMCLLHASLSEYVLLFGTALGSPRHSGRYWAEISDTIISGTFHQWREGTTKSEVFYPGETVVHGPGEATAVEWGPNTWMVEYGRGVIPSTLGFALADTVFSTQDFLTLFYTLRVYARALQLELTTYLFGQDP

σ1 receptor [2] = target: T2, σ1 receptor; details: earlier 2-benzofuran tracers, quoted for comparison, no reference printed at the values; cited from earlier work
[3] = target: T3, σ1 receptors in the brain (Mus musculus, UniProt O55242); design: method as in PMID 21072511; details: 30 min after injection, 18F-labeled tracer; cited from earlier work
T3 construct: tissue Medizinisch-Experimentelles Zentrum, Universität Leipzig; host or cells: brain of female CD1 mice (in vivo / ex vivo autoradiography)
T3 sequence (O55242 whole entry): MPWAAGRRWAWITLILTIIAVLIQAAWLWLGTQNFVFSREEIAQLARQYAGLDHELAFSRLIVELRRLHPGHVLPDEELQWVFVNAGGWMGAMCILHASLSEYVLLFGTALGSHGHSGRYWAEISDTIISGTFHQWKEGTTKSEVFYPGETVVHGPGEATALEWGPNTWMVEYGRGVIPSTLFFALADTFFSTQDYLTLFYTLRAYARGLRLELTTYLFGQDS

[4] = cited from earlier work
[5] = HPLC calibration; cited from earlier work
[6] = female, CD1, mouse, in vivo
[7] = target: T3, σ1 receptors in the brain; experiment: Brain uptake and ex vivo autoradiography under control and haloperidol blocking conditions; assay type: in vivo
Method: The experimental protocols were approved by the local ethics committee and conducted according to the national and EU regulations for animal research. Female CD1 mice (10–12 weeks old, 33.8 ± 6.2 g) were obtained from the Medizinisch-Experimentelles Zentrum, Universität Leipzig and housed under a 12 h/12 h light/dark cycle with free access to food and water for at least 24 h before experiments. Animals were sacrificed by CO2 asphyxiation after anaesthesia with O2/CO2 mixture.
The tracer distribution in the brain under control and blocking conditions was determined by ex vivo autoradiography studies. […] Animals were sacrificed at 30 min p.i. Blood was collected by heart puncture, the brain quickly removed and transferred on ice, and all samples were weighed. Radioactivity in brain and plasma samples was counted using an automated γ-counter and expressed as percentage of injected dose per gram (%ID/g). For autoradiography, the brain hemispheres were frozen immediately after isolation in 2-methylbutane (Carl Roth, Karlsruhe, Germany) at −30 °C (>2 min). Serial sagittal slices of 12 µm thickness were cut on a cryostat (Microm, Walldorf, Germany) from approx. midline, +500 µm, +1,000 µm and +1,500 µm. Slices were exposed overnight on an imaging plate (SR 2025, Fuji, Tokyo, Japan), scanned afterwards with a high-resolution phosphorimager (HD-CR 35 Bio, raytest). 2D densitometry of the whole brain was performed with AIDA software (raytest).

[8] = phosphate buffer, Dulbecco buffer and native mouse plasma over 30 min at 37 °C
Method: For pharmacological characterization of the radiotracer [^18F]-(R)-20, chemical stability was investigated in vitro in different buffer systems over 2 h at 40 °C: 50 mM phosphate buffer (pH 7.2), phosphate-saline-solution (Dulbecco; pH 7.2) and 0.01 M TRIS-HCl (pH 7.4).

[9] = at a concentration of 1 µM, rat liver membranes, [3H]DTG
[10] = rat liver membranes, [3H]DTG, read-out: Ki ± SEM σ2
[11] = established PET tracers, quoted for comparison, no reference given

OCCO[C@@H]1COC2(CCN(Cc3ccccc3)CC2)c2ccccc21 [(S)-19, (S)-2-[(1′-Benzyl-3,4-dihydrospiro[[2]benzopyran-1,4′-piperidin]-4-yl)oxy]ethanol]
inhibition at 1 µM (σ2 receptor; [9]): 0% | Ki (σ1 receptor [1]): 64 ± 0.9 nM | Selectivity σ1/σ2 (σ1 receptor [1]): >15

FCCO[C@H]1COC2(CCN(Cc3ccccc3)CC2)c2ccccc21 [(R)-20, (R)-1′-Benzyl-4-(2-fluoroethoxy)-3,4-dihydrospiro[[2]benzopyran-1,4′-piperidine]]
inhibition at 1 µM (σ2 receptor; [9]): 14% | Ki (σ1 receptor [1]): 4.7 ± 0.7 nM | Selectivity σ1/σ2 (σ1 receptor [1]): >210

CCOC(=O)CO[C@@H]1COC2(CCN(Cc3ccccc3)CC2)c2ccccc21 [(S)-18, Ethyl (S)-2-[(1′-benzyl-3,4-dihydro-3,4-dihydrospiro[2-benzopyran-1,4′-piperidin]-4-yl)oxy]acetate]
inhibition at 1 µM (σ2 receptor): 12% | Ki (σ1 receptor [1]): 114 nM | Selectivity σ1/σ2 (σ1 receptor [1]): >5

FCCC1OC2(CCN(Cc3ccccc3)CC2)c2ccccc21 (stereo not drawn) [fluspidine]
Ki (σ1 receptor [2]): 0.59 nM

FCCCCC1OC2(CCN(Cc3ccccc3)CC2)c2ccccc21 (stereo not drawn) [Compound 2d]
total-to-nonspecific binding ratio [3]: approx. 3

CCOC(=O)CO[C@H]1COC2(CCN(Cc3ccccc3)CC2)c2ccccc21 [(R)-18, Ethyl (R)-2-[(1′-benzyl-3,4-dihydrospiro[[2]benzopyran-1,4′-piperidin]-4-yl)oxy]acetate]
Ki (σ2 receptor): 552 nM | Ki (σ1 receptor [1]): 4 ± 0.8 nM | Selectivity σ1/σ2 (σ1 receptor [1]): 138 | eudismic ratio (σ1 affinity) (σ1 receptor [1]): 29

CCO[C@@H]1COC2(CCN(Cc3ccccc3)CC2)c2ccccc21 [(S)-16, (S)-1′-Benzyl-4-ethoxy-3,4-dihydrospiro[[2]benzopyran-1,4′-piperidine]]
inhibition at 1 µM (σ2 receptor): 31% | Ki (σ1 receptor [1]): 4.2 ± 0.8 nM | Selectivity σ1/σ2 (σ1 receptor [1]): >235

FCCO[C@@H]1COC2(CCN(Cc3ccccc3)CC2)c2ccccc21 [(S)-20, (S)-1′-Benzyl-4-(2-fluoroethoxy)-3,4-dohydrospiro[[2]benzopyran-1,4′-piperidine]]
inhibition at 1 µM (σ2 receptor; [9]): 10% | Ki (σ1 receptor [1]): 5.9 ± 2.9 nM | Selectivity σ1/σ2 (σ1 receptor [1]): >170

CO[C@@H]1COC2(CCN(Cc3ccccc3)CC2)c2ccccc21 [(S)-15, (S)-1′-Benzyl-4-methoxy-3,4-dihydrospiro[[2]benzopyran-1,4′-piperidine]]
Ki (σ2 receptor; [10]): 676 nM | Ki (σ1 receptor [1]): 8.8 ± 1.1 nM | Selectivity σ1/σ2 (σ1 receptor [1]): 77

O[C@H]1COC2(CCN(Cc3ccccc3)CC2)c2ccccc21
melting point: 55 °C

CC(C)(C)OC(=O)N1CCC2(CC1)OC[C@H](O)c1ccccc12 [(R)-11, tert-Butyl (R)-4-hydroxy-3,4-dihydrospiro[[2]benzopyran-1,4′-piperidine]-1′-carboxylate]
Ki (σ2 receptor; [10]): 2150 nM | Ki (σ1 receptor [1]; guinea pig brain membranes, [3H]-(+)-pentazocine, three independent experiments, read-out: Ki ± SEM σ1): 5.2 ± 0.3 nM | Selectivity σ1/σ2 (σ1 receptor [1]; ratio of σ2 and σ1 Ki values): 413 | melting point: 161 °C

FCCC1OC2(CCN(Cc3ccccc3)CC2)c2ccccc21 (stereo not drawn) [[^18F]2b]
total-to-nonspecific binding ratio [3]: approx. 3 | parent compound in liver samples ([4]; mouse, in vivo): 69% | unchanged parent compound in plasma ([4]; mouse, in vivo): 89%

CCO[C@H]1COC2(CCN(Cc3ccccc3)CC2)c2ccccc21 [(R)-16, (R)-1′-Benzyl-4-ethoxy-3,4-dihydrospiro[[2]benzopyran-1,4′-piperidine]]
Ki (σ2 receptor): 954 nM | Ki (σ1 receptor [1]): 5 ± 1.2 nM | Selectivity σ1/σ2 (σ1 receptor [1]): 191

CO[C@H]1COC2(CCN(Cc3ccccc3)CC2)c2ccccc21 [(R)-15, (R)-1′-Benzyl-4-methoxy-3,4-dihydrospiro[[2]benzopyran-1,4′-piperidine]]
Ki (σ2 receptor; [10]): 1150 nM | Ki (σ1 receptor [1]): 1.2 ± 0.3 nM | Selectivity σ1/σ2 (σ1 receptor [1]): 958 | eudismic ratio (σ1 affinity) (σ1 receptor [1]): 7

[18F]CCCC1OC2(CCN(Cc3ccccc3)CC2)c2ccccc21 (stereo not drawn) [[^18F]2c]
parent compound in liver samples [4, 11]: 65% | unchanged parent compound in plasma [4, 11]: 86%

O[C@@H]1COC2(CCN(Cc3ccccc3)CC2)c2ccccc21
melting point: 53 °C

OCCO[C@H]1COC2(CCN(Cc3ccccc3)CC2)c2ccccc21 [(R)-19, (R)-2-[(1′-Benzyl-3,4-dihydrospiro[[2]benzopyran-1,4′-piperidin]-4-yl)oxy]ethanol]
inhibition at 1 µM (σ2 receptor; [9]): 0% | Ki (σ1 receptor [1]): 55 ± 1 nM | Selectivity σ1/σ2 (σ1 receptor [1]): >15

Clc1ccccc1 [chlorobenzene]
logD of reference compounds used for calibration [5]: 2.8

tert-Butyl (S)-4-hydroxy-3,4-dihydrospiro[[2]benzopyran-1,4′-piperidine]-1′-carboxylate [(S)-11]
Inhibition of radioligand binding (σ2) (σ2 receptor; 1 µM): 24% * | Selectivity σ1/σ2 (σ1 receptor [1]): >55 | Ki (σ1 receptor [1]; read-out: Ki ± SEM σ1): 18 ± 5 nM

c1ccc2ccccc2c1 [naphthalene]
logD of reference compounds used for calibration [5]: 3.6

c1ccc2c(c1)-c1cccc3cccc-2c13 [fluoranthene]
logD of reference compounds used for calibration [5]: 5.1

[18F]CCO[C@H]1COC2(CCN(Cc3ccccc3)CC2)c2ccccc21 [[^18F]-(R)-20]
Ki (σ1 receptor [1]): 4.7 nM | non-metabolized radiotracer of total radioactivity in urine ([6]; 0.5 h): 2-20% | unchanged parent radiotracer in liver ([6]; 30 min): ~56% | mean decrease of radiotracer uptake in slices of the whole brain hemisphere with haloperidol ([7]; 2D densitometry of ex vivo autoradiographs): about 40% | total-to-nonspecific binding ratio ([7]; mouse brain, 30 min p.i.): 1.5 | uptake of radioactivity in the brain ([7]; mouse, 30 min p.i., blocking conditions, co-application of 1 mg/kg haloperidol): 2.24 % ID/g | uptake of radioactivity in the brain ([7]; mouse, 30 min p.i., control conditions): 3.4 % ID/g | reduction of brain uptake by haloperidol co-application ([7]; mouse, 30 min p.i., from %ID/g values): 34% | defluorination [8]: No defluorination was observed
